# Experimental data as given in ChEMBL document CHEMBL1201862, “PubChem BioAssay data set” (2004).
# Activity calls are given as the source filed them. Rule as the data show it, for most assays here: actives have a measured EC50 and inactives only a lower limit.
# Experiments:
# [1] = viability of uninfected HEp-2 cells – cell-based, HTS, cytotoxicity control for RSV inhibitor project, dose response (AID 2410); type: functional; conditions: human respiratory syncytial virus
# Protein skinhead-1 = molecular target: T1, Protein skinhead-1 (Caenorhabditis elegans, UniProt P34707); type: functional
# T1 sequence (P34707 whole entry): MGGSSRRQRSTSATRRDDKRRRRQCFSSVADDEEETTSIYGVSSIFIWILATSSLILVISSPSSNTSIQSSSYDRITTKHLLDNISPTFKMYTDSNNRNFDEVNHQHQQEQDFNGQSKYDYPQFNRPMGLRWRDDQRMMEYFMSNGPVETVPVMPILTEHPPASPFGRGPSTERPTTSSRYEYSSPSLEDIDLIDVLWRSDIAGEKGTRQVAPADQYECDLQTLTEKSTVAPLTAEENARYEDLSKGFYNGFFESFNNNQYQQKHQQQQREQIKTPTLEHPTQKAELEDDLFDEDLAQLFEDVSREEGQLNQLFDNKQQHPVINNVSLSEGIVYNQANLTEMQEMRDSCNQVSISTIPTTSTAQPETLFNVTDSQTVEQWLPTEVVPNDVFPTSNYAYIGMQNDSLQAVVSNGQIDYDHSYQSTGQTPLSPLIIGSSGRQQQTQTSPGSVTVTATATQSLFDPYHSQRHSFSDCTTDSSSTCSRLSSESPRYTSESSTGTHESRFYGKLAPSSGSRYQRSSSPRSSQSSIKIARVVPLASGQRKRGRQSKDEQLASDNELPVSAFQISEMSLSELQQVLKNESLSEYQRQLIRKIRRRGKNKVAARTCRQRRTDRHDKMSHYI
# [2] = molecular target: T2, Rac GTPase-activating protein 1 (Homo sapiens, UniProt Q9H0H5); experiment: blockers of MgcRacGAP-driven Rac1 GTP hydrolysis – biochemical, ADP Hunter fluorescence, primary and confirmatory, confirmation (AID 624330); type: functional
# T2 sequence (Q9H0H5 whole entry): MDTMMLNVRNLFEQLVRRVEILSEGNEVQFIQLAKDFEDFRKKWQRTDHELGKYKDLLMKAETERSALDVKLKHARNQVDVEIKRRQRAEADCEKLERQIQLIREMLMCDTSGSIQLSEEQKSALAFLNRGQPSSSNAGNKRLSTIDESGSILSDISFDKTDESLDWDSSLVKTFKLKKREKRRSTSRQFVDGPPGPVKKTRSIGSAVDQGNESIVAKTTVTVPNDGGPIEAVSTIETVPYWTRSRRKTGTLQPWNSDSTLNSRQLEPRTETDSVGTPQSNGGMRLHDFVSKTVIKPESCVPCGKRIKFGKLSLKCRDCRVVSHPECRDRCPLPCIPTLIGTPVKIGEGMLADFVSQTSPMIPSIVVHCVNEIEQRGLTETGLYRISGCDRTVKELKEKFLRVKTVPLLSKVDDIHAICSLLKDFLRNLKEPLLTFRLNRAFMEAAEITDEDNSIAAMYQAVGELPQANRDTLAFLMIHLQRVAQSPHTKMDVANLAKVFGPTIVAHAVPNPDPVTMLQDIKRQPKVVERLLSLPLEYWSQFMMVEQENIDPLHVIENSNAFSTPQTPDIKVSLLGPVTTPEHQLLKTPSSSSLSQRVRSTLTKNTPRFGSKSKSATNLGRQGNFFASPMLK
# [3] = NIH-3T3 fibroblast cytotoxicity, dose response, cytotoxicity control, cell-based, fluorescence, Alamar Blue, secondary assay (AID 2327); type: functional;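 also: NIH-3T3 mouse fibroblasts cultured with fluconazole at 8 µg/mL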
# [4] = test system: Streptococcus sp. 'group A'; experiment: Streptococcus pyogenes SK(-)GAS viability under kanamycin – luminescence, BacTiterGlo, confirmation, counter-screen for streptokinase expression inhibitor project, dose response (AID 1900); type: functional, organism-based
# Streptokinase A = molecular target: T3, Streptokinase A (Streptococcus pyogenes serotype M1, UniProt P10520); experiment: viability-normalized secreted streptokinase activity reduction – plasminogen activation absorbance, OD405, dose response (AID 1914); type: functional, Streptococcus pyogenes M1 GAS;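 also: secreted streptokinase activity via plasminogen activation per viability signal from cell pellet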
# T3 sequence (P10520 whole entry): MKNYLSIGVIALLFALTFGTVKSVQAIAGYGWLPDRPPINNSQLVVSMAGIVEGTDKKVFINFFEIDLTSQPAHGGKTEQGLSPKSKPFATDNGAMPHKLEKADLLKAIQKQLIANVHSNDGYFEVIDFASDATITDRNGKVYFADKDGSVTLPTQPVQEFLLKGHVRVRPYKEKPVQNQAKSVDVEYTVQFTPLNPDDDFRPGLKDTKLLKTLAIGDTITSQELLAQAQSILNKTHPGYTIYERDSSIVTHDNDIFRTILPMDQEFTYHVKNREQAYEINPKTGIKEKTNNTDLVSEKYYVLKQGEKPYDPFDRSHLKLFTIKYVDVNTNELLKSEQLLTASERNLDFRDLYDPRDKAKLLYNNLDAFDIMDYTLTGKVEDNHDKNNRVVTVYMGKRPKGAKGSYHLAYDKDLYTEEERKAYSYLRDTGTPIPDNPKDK
# Streptococcus = experiment: GAS UMAA2166 growth inhibition – luminescence, BacTiterGlo, counter-screen for streptokinase expression inhibitor project, dose response (AID 1915); type: functional, organism-based;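 also: potency for reduction of bacterial viability or growth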
# Nonstructural protein 1 = Nonstructural protein 1 (Influenza A virus, UniProt Q194T2); type: functional, Influenza A virus (A/California/07/2009(H1N1))
# [5] = molecular target: Luciferin 4-monooxygenase (Photinus pyralis, UniProt P08659); experiment: inhibition of purified Photinus pyralis luciferase – biochemical, luminescence, dose response (AID 1891)
# [6] = Luminescence Cell-Based Dose Confirmation HTS to Identify Inhibitors of Platelet Dense Granule Release. [Related pubchem assays: 1663 (Primary HTS), 1678 (Summary of Project)]; type: functional
# [7] = Trypanosoma cruzi growth suppression in host cells – NIH3T3 host cells, beta-gal luminescence, confirmation (AID 2044); type: functional, cell-based;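 also: intracellular parasites grown in NIH/3T3 mouse fibroblasts as host cells; luminescent beta-galactosidase reporter signal from transgenic T. cruzi replicating inside host cells; inhibitors lower the luminescence signal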
# [8] = NIH3T3 cell viability loss – ATP luminescence, mouse fibroblasts, counter-screen, dose response (AID 2010); type: functional, cell-based;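 also: cells exposed to compound for about 90 hours before reading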
# [9] = luciferase reporter signal suppression in cells – H4 neuroglioma cells, luminescence, dose response (AID 1990); type: functional, cell-based
# [10] = Luminescence Cell-Based Dose Response HTS to Identify Inhibitors of 5'UTR Stem-Loop Driven Prion Protein mRNA Translation in H4 Neuroglioblastoma Cells. [Related pubchem assays: 1827 (Project Summary), 1813 (Primary HTS)]; type: functional
# [11] = alpha-synuclein stem-loop luciferase translation blockers – H4 neuroglioma cells, luminescence, confirmation (AID 1988); type: functional, cell-based
smiles,measurement,setting,value
O=C(NCCOc1ccc(Cl)cc1)c1ccc2ccccc2n1,CC50,[1],20.9 µM (active)
same,IC50,Protein skinhead-1,> 100 µM (inactive)
CCN(CC(=O)Nc1cc(Cl)ccc1OC)CC(=O)NC1CCS(=O)(=O)C1 (stereo not given),IC50,[2],95.7 µM (active)
Nc1ccc(N2CCOCC2)c(Cl)c1,IC50,[2],38.2 µM (active)
NC(Cc1nc(-c2ccc(Br)cc2)cs1)=NO,EC50,[3],> 150 µM (inactive)
CCCCCn1c(N)c(-c2nc3ccccc3s2)c2c([N+](=O)[O-])nn(CC)c(=O)c21,EC50,[4],6.03 µM (active)
same,EC50,Streptokinase A,> 150 µM (not active)
same,EC50,Streptococcus,> 150 µM (not active)
same,IC50,Nonstructural protein 1,> 50 µM (active)
Cc1nonc1C(=O)N/N=C/c1ccc(O)cc1,EC50,[5],0.916 µM (active)
same,EC50,[6],0.172 µM (active)
same,IC50,[2],95.6 µM (active)
CN1CCc2c(sc3c2C(=O)NC(c2ccccc2)N3)C1 (stereo not given),IC50,Protein skinhead-1,> 100 µM (inactive)
Cc1ccc(S(=O)(=O)NCC2CCC(C(=O)NCc3ccc4c(c3)OCO4)CC2)cc1 (stereo not given),EC50,[5],> 112 µM (not active)
same,EC50,[6],> 112 µM (not active)
COc1ccc(/C=N/NC(=O)CN2CCCCCCC2)c(C)c1C,IC50,[2],139 µM (active)
Cc1ccccc1NC(=O)CSc1nn2c(=O)c(C)nnc2s1,IC50,Nonstructural protein 1,10.5 µM (active)
NS(=O)(=O)c1ccc(Nc2nc(-c3ccc(O)cc3)cs2)cc1,IC50,[2],19.9 µM (active)
O=C(Sc1ccc(Cl)cc1)c1ccccn1,IC50,Protein skinhead-1,44.5 µM (active)
COc1ccccc1NC(=O)Nc1nc(CC(=O)Nc2ccc(N(C)C)cc2)cs1,IC50,Nonstructural protein 1,26.9 µM (active)
C/C=C/c1ccc(OCCCCN2CCN(CC)CC2)c(OC)c1,IC50,[2],82 µM (active)
CC(C(=O)N(C)Cc1ccccc1)N1CCN(C/C=C/c2ccccc2)CC1 (stereo not given),EC50,[7],0.164 µM (active)
same,EC50,[8],> 30 µM (not active)
same,IC50,[2],80.2 µM (active)
COc1cc2sc3cc(NCc4ccc(C)o4)ccc3c(=O)c2cc1OC,IC50,Protein skinhead-1,> 100 µM (inactive)
CN(C)c1ccc(C=NN2CCCCCC2)cc1,IC50,Nonstructural protein 1,48.1 µM (active)
O=C(Nc1ccccc1Oc1ccccc1)c1cccs1,IC50,Protein skinhead-1,> 100 µM (inactive)
Nc1ccc2c(c1)[nH]c(=O)c1cc(N)ccc12,IC50,[2],10.9 µM (active)
Cc1cc(C)cc(OCc2ccc(C(=O)N3N=C(C(F)F)CC3(O)C(F)F)o2)c1 (stereo not given),EC50,[3],120 µM (active)
Cc1cccc(N2CCN(S(=O)(=O)c3ccc4c(c3)C(C)(C)C(=O)N4C)CC2C)c1 (stereo not given),EC50,[5],> 112 µM (not active)
same,EC50,[6],> 112 µM (not active)
CONC=NC(=O)NOCc1ccc(Cl)cc1Cl,EC50,[5],> 112 µM (not active)
same,EC50,[6],> 112 µM (not active)
COc1cc(NC(=O)CN2C(=O)C(c3ccccc3)=NC23CCCCCC3)cc(OC)c1,EC50,[5],> 112 µM (not active)
same,EC50,[6],> 112 µM (not active)
COc1ccc(-c2n[nH]c(S)n2)cc1,EC50,[6],> 112 µM (not active)
N#Cc1c(O)nsc1Nc1ccc(Cl)cc1,IC50,[2],79.9 µM (active)
CC(=O)Nc1cccc(Oc2cc(C#N)c(C#N)cc2N2CCCCCC2)c1,EC50,[9],14.6 µM (active)
same,EC50,[10],> 120 µM (not active)
same,EC50,[11],> 120 µM (not active)
N#CC1(Nc2ccc(-c3ccc(NC4(C#N)CCCC4)cc3)cc2)CCCC1,IC50,[2],10.3 µM (active)
CCCCn1c(N)c(N(CCC(C)C)C(=O)C2CC(=O)N(c3ccc(OC)cc3OC)C2)c(=O)[nH]c1=O (stereo not given),EC50,[5],> 112 µM (not active)
same,EC50,[6],> 112 µM (not active)
FCCCOc1ccc(-c2nccc(-c3ccccn3)n2)cc1,IC50,Protein skinhead-1,17.9 µM (active)
Fc1ccc(Nc2cccc3nccnc23)cc1,IC50,Protein skinhead-1,34.1 µM (active)
CSc1nc(N(C)NC(=O)c2ccc(F)cc2)c2ccccc2n1,EC50,[9],10.6 µM (active)
same,EC50,[10],0.258 µM (active)
same,EC50,[11],< 0.195 µM (active)
O=C(Nc1ccccc1)c1cnc2ccccc2n1,EC50,[5],> 112 µM (not active)
same,EC50,[6],> 112 µM (not active)
CC(C)CNc1nc(N)c([N+](=O)[O-])c(NCc2ccccc2)n1,EC50,[9],16.3 µM (active)
same,EC50,[10],> 120 µM (not active)
same,EC50,[11],22.7 µM (active)
CCCn1c(N)c(C(c2ccc(OC)cc2)N2CCN(c3ccccc3)CC2)c(=O)[nH]c1=O (stereo not given),IC50,Protein skinhead-1,> 100 µM (inactive)
OC1CN=C2C=CC=CN2C1 (stereo not given),EC50,[5],> 112 µM (not active)
same,EC50,[6],> 112 µM (not active)
Cc1nc(S)c(C#N)c(C)c1CCC#N,EC50,[6],> 112 µM (not active)
COc1ccc(C(c2sc3nc(C)nn3c2O)N2CCCCC2)cc1 (stereo not given),EC50,[5],> 112 µM (not active)
same,EC50,[6],> 112 µM (not active)
Cc1cc(S(=O)(=O)N2CCCC2)ccc1OCC(=O)N1CCOCC1,EC50,[9],> 120 µM (not active)
same,EC50,[10],> 120 µM (not active)
same,EC50,[11],> 120 µM (not active)
O=C1c2ccccc2-c2onc3c(N4CCN(CCO)CC4)cc(N4CCN(C(=O)c5ccco5)CC4)c1c23,IC50,Nonstructural protein 1,9.93 µM (active)
Cc1nn(-c2ccccc2)c(O)c1/C=N/N(C)c1ccccc1,IC50,[2],19.3 µM (active)
CCOC(=O)C1(C)C(N=Nc2ccc(Cl)cc2)=C(O)C(=O)N1c1ccccc1 (stereo not given),IC50,Protein skinhead-1,> 100 µM (inactive)
